This assay deals with T1, factor D (Homo sapiens, UniProt P00746).
T1 construct: made in house; host or cells: E. coli
T1 sequence (P00746 26-253): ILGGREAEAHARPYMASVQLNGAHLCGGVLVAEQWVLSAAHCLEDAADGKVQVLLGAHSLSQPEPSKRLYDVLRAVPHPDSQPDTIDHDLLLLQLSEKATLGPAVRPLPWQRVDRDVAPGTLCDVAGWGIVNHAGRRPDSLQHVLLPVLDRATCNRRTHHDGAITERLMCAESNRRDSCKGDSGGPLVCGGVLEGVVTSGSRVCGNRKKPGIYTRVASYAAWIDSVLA
The assay can be described thus: factor D inhibition assay of Biological Example 2. The format is biochemical.
The term IC50 denotes the concentration needed to halve the response being measured. Low values mean greater potency in that assay, high ones weaker potency in that assay. `CCC[C@@H](N)c1cccc(-c2cc(COc3ccccc3CC(=O)O)cc(NCC3CC3)c2)c1` [Example 197, (R)-2-(2-((3′-(1-Aminobutyl)-5-((cyclopropylmethyl)amino)-[1,1′-biphenyl]-3-yl)methoxy)phenyl)acetic acid] yielded a half-maximal inhibitory concentration (IC50) of 0.069 µM.

`NCc1cccc(-c2cc(CNCC(F)(F)F)cc(COc3ccccc3CC(=O)O)c2)c1` [Example 208-E] displayed an IC50 of 0.003 µM.

On to `C[C@@H](N)c1cccc(-c2cc(COc3ccccc3CC(=O)O)cc(NCC3CC3(F)F)c2)c1F` (stereo partly drawn) [Example 281-E, 2-(2-((3′-((R)-1-Aminoethyl)-5-(((2,2-difluorocyclopropyl)methyl)amino)-2′-fluoro-[1,1′-biphenyl]-3-yl)methoxy)phenyl)acetic acid], for which half-maximal inhibition (IC50) required 0.014 µM.

Molecule `C[C@@H](N)c1cccc(-c2cc(COc3ccccc3CC(=O)O)cc(NCC3CCCC3)c2)c1F` [Example 216-D] gave an IC50 of 0.002 µM.

Take `C[C@@H](N)c1cccc(-c2cc(COc3ccccc3CC(=O)O)cc(OCC3CCCN3)c2)c1F` (stereo partly drawn) [Example 266, 2-(2-((3′-((R)-1-aminoethyl)-2′-fluoro-5-(pyrrolidin-2-ylmethoxy)-[1,1′-biphenyl]-3-yl)methoxy)phenyl)acetic acid]: the half-inhibitory concentration (IC50) was found to be 0.034 µM.

On to `NC(CF)c1cccc(-c2cc(COc3ccccc3CC(=O)O)cc(OC[C@H]3CCCO3)c2)c1F` (single isomer, unassigned; (+)) [Example 212-B], for which the IC50 is 0.006 µM.

`Nc1cc(COc2ccccc2CC(=O)O)cc(-c2cccc([C@H](N)CO)c2)c1` [Example 133, (S)-2-(2-((5-amino-3′-(1-amino-2-hydroxyethyl)-[1,1′-biphenyl]-3-yl)methoxy)phenyl)acetic acid]: the IC50 amounted to 0.009 µM.

Consider `N[C@H](CO)c1cccc(-c2cc(COc3ccccc3CC(=O)O)cc(C3CC3)c2)c1` [Example 109-B, (S)-2-(2-((3′-(1-Amino-2-hydroxyethyl)-5-cyclopropyl-[1,1′-biphenyl]-3-yl)methoxy)phenyl)acetic acid], for which the half-inhibitory concentration (IC50) amounted to 0.022 µM.

`CNc1sc(-c2cc(F)cc(CN)c2)nc1C(=O)Nc1cc(C)ccc1CC(=O)O` [Example 34-C, 2-(2-(2-(3-(Aminomethyl)-5-fluorophenyl)-5-(methylamino)thiazole-4-carboxamido)-4-methylphenyl)acetic acid]: the IC50 amounted to 0.005 µM.

As to `N[C@H](CO)c1cccc(-c2ccnc(COc3ccccc3CC(=O)O)c2)c1` [Example 170, (S)-2-(2-((4-(3-(1-Amino-2-hydroxyethyl)phenyl)pyridin-2-yl)methoxy)phenyl)acetic acid], the midpoint of inhibition, the IC50, lay at 0.022 µM.

`NCc1cccc(-c2ccc3c(c2)C(Oc2ccccc2CC(=O)O)CCC3)c1` (single isomer, unassigned) [175 b) (tr = 9.5 min), (−) or (+)-(2-((7-(3-(aminomethyl)phenyl)-1,2,3,4-tetrahydronaphthalen-1-yl)oxy)phenyl)acetic acid]: the IC50 worked out at 0.25 µM.

Consider `CC(O)c1cc(COc2ccccc2CC(=O)O)cc(-c2cccc([C@@H](C)N)c2F)c1` (some centres unmarked) [Example 120-F], for which half-maximal inhibition (IC50) required 0.008 µM.

For the molecule `Cc1ccc(COc2ccccc2CC(=O)O)cc1-c1cccc([C@H](N)CO)c1` [Example 116-K], the IC50 turned out to be 0.108 µM.

Consider `NCc1cccc(-c2cc(N)c(F)c(COc3ccccc3CC(=O)O)c2)c1` [154-C a), 2-(2-((5-Amino-3′-(aminomethyl)-4-fluoro-[1,1′-biphenyl]-3-yl)methoxy)phenyl)acetic acid], for which the IC50 amounted to 0.003 µM.

Turning to `COc1cc(COc2ccccc2CC(=O)O)cc(-c2cccc(CN)c2)c1` [Example 134, 2-(2-((3′-(Aminomethyl)-5-methoxy-[1,1′-biphenyl]-3-yl)methoxy)phenyl)acetic acid], the IC50 stood at 0.013 µM.

Molecule `CCc1ccc(NC(=O)c2cccc(-c3cc(F)cc(CN)c3)c2)c(CC(=O)O)c1` [Example 23-C, 2-(2-(3′-(Aminomethyl)-5′-fluoro-[1,1′-biphenyl]-3-ylcarboxamido)-5-ethylphenyl)acetic acid] gave an IC50 of 0.396 µM.

For `C[C@@H](N)c1cccc(-c2cc(COc3ccccc3CC(=O)O)cc(OCC3(C)CC3)c2)c1F` [Example 259-E, (R)-2-(2-((3′-(1-aminoethyl)-2′-fluoro-5-((1-methylcyclopropyl)methoxy)-[1,1′-biphenyl]-3-yl)methoxy)phenyl)acetic acid], the concentration for half-maximal inhibition (IC50) came out at 0.022 µM.

On to `NCc1cc(F)cc(-c2cccc(C(=O)Nc3cccc(Cl)c3CC(=O)O)c2)c1` [Example 21-F], for which the concentration for half-maximal inhibition (IC50) was 3.12 µM.

Molecule `NCc1cccc(-c2cccc(COc3c(Br)cccc3CC(=O)O)c2)c1` [Example 174, 2-(2-((3′-(Aminomethyl)-[1,1′-biphenyl]-3-yl)methoxy)-3-bromophenyl)acetic acid] yielded an IC50 of 0.111 µM.

`NCc1cccc(-c2cc(OCC3CCCO3)cc(C(=O)Nc3ccccc3CC(=O)O)c2)c1` (racemic) [Example 63, (±)-2-(2-(3′-(Aminomethyl)-5-((tetrahydrofuran-2-yl)methoxy)-[1,1′-biphenyl]-3-ylcarboxamido)phenyl)acetic acid] registered an IC50 of 0.016 µM.

`N[C@@H](c1cccc(-c2cccc(COc3ccccc3CC(=O)O)c2)c1)C1CC1` [Example 196-G] returned an IC50 of 1.08 µM.

Turning to `C[C@@H](N)c1cccc(-c2cccc(N(C)Cc3ccccc3CC(=O)O)c2)c1F` [Example 220-D, (R)-2-(2-(((3′-(1-aminoethyl)-2′-fluoro-[1,1′-biphenyl]-3-yl)(methyl)amino)methyl)phenyl)acetic acid], inhibition was half-maximal at 0.044 µM (IC50).

For the molecule `Cn1cc(-c2cc(COc3ccccc3CC(=O)O)cc(-c3cccc(CN)c3)c2)cn1` [Example 208-H], the IC50 came to 0.004 µM.

The molecule `C[C@@H](N)c1cccc(-c2cc(NCC(F)F)cc(N(C)Cc3ccccc3CC(=O)O)c2)c1F` [Example 216-AC] yielded a 50% inhibitory concentration (IC50) of 0.033 µM.

The molecule `C[C@@H](N)c1cccc(-c2cc(NCC3CC3)c3c(c2)C(Oc2ccccc2CC(=O)O)CCC3)c1F` (some centres unmarked) [Example 216-Z] returned an IC50 of 0.013 µM.

`NCc1cccc(-c2cccc(COc3ccc(C(N)=O)cc3CC(=O)O)c2)c1` [Example 294-G] displayed an IC50 of 4.03 µM.

Take `NCc1cccc(-c2cc(NC3CC3)cc(C(=O)Nc3ccccc3CC(=O)O)n2)c1` [Example 50, 2-(2-(6-(3-(aminomethyl)phenyl)-4-(cyclopropylamino)picolinamido)phenyl)acetic acid]: the IC50 is 0.002 µM.

For the molecule `C[C@@H](N)c1cccc(-c2cc(CCCF)cc(COc3ccccc3CC(=O)O)c2)c1F` [Example 269-E, (R)-2-(2-((3′-(1-aminoethyl)-2′-fluoro-5-(3-fluoropropyl)-[1,1′-biphenyl]-3-yl)methoxy)phenyl)acetic acid], 0.009 µM corresponded to half-maximal inhibition (IC50).

For the molecule `NCc1cccc(-c2cc(NCc3ccccc3)cc(C(=O)Nc3ccccc3CC(=O)O)n2)c1` [Example 53, 2-(2-(6-(3-(Aminomethyl)phenyl)-4-(benzylamino)picolinamido)phenyl)acetic acid], 0.003 µM corresponded to half-maximal inhibition (IC50).

`Cc1cccc(NC(=O)c2cccc(-c3cc(F)cc(CN)c3)c2)c1CC(=O)O` [Example 21-H] came in with an IC50 of 0.94 µM.

Consider `NCc1cccc(-c2cc(COc3ccccc3CC(=O)O)cc(C(NC(=O)c3ccccc3)C(F)(F)F)c2)c1` (centres unmarked) [Example 208-D], for which 0.004 µM corresponded to half-maximal inhibition (IC50).

For the molecule `C[C@@H](N)c1cccc(-c2cc(COc3ccccc3CC(=O)O)cc(NCC(F)F)c2)c1F` [Example 216-M], the IC50 stood at 0.013 µM.

For the origin of these results see patent US20160145247A1, “Aminomethyl-Biaryl Derivatives Complement Factor D inhibitors and uses thereof” (NOVARTIS AG, priority 2013, published 2016).
